The text below walks through data of patent US20200308171A1, “BIFUNCTIONAL INHIBITORS WITH EGFR HAVING A E3 UBIQUITIN LIGASE MOIETY” (Hoffmann-La Roche Inc., priority 2017, published 2020).

The target of this experiment is T1, EGFR T790M/L858R/C797S (Homo sapiens, UniProt P00533, C797S/L858R/T790M).
T1 construct: expressed in transfected cells; host or cells: BaF3 (murine pro-B) cells stably transduced with pCDH lentiviral vector, PGK promoter
T1 sequence (P00533 25-1210 T790M/C797S/L858R): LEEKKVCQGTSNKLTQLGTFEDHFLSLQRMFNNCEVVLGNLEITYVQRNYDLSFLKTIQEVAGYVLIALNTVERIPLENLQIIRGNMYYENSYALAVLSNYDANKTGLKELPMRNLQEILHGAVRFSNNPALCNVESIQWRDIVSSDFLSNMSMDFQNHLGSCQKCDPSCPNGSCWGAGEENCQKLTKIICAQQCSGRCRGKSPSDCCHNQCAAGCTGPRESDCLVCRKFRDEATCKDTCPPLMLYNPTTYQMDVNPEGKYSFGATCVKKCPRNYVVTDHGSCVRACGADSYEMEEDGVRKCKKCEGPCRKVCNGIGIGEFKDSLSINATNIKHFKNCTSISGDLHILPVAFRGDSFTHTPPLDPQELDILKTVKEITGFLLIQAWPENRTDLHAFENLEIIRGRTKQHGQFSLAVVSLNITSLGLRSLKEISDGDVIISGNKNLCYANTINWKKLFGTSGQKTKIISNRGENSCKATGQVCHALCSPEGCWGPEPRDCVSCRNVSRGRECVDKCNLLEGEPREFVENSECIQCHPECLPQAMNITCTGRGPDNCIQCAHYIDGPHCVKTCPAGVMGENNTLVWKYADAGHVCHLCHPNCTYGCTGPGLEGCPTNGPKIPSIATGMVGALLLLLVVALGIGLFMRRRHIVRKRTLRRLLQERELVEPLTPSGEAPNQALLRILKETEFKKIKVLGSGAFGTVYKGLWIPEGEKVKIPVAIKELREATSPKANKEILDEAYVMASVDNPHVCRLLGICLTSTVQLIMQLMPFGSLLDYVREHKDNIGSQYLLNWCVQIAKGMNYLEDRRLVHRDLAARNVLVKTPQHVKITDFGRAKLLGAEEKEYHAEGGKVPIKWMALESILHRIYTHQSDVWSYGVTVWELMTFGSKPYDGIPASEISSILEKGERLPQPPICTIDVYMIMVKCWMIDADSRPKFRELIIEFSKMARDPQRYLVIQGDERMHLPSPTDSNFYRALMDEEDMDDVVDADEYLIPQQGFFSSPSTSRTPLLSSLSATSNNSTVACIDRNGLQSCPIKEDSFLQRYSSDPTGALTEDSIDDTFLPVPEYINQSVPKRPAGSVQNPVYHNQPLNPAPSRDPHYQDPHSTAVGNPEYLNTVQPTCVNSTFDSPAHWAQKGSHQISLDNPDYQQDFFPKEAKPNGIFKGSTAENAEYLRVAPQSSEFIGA
Description: EGFR Degradation Assay (Cellular), FRET quantification of total EGFR. The experiment is classed as cell-based. The note with it: BaF3 EGFR mutant cell line (EGFR T790M/L858R/C797S); 4-hour incubation; total EGFR FRET kit; top concentration 1 μM, 11 points; read-out: IC50 [nM] mutant EGFR degradation. The method, then: EGFR Degradation Assay (Cellular)
The BaF3 parental line was purchased from DSMZ and grown in RPMI media supplemented with 10% FBS and 10 ng/mL interleukin 3 (IL-3) (Thermo Fisher Scientific). EGFR mutants ([…]) were cloned into the pCDH lentiviral vector (SystemBio) under the control of a PGK promoter and confirmed by DNA sequencing. The resulting gene expression vector for each mutant was mixed with packaging vectors and cotransfected into 2×10E6 HEK293T cells (ATCC) in 10 mL of DMEM media to generate lentiviral particles according to the manufacturers protocol (Origene).
Three days post-transfection, the viral supernatant was harvested and filtered. In one well of a 12-well plate, 0.5 mL of viral supernatant was added to 2E6 Ba/F3 cells contained in 1.5 mL of RPMI media including 10% FBS, 10 ng/mL IL-3, and 5 μg/mL polybrene (Invitrogen). The plate was centrifuged at 2,000 rpm for 1 hour at room temperature and infected cells were kept in a tissue culture incubator overnight at 37° C. The cells were washed once in fresh BaF3 media and reseeded at 0.5E6 cells/well of a 12-well plate in media supplemented with 0.5 μg/mL puromycin. The cells were maintained in this media for 3 weeks. IL-3-independent, EGFR mutant transformed cells were routinely maintained in RPMI medium supplemented with 10% FBS.
RPMI 1640 no-phenol red medium and fetal bovine serum (FBS) were purchased from Gibco (Grand Island, N.Y., USA). EGFR total kit and EGFR phospho-Y1068 kit were purchased from Cisbio (Bedford, Mass., USA). BaF3 EGFR mutant cell lines (EGFR T790M/L858R/C797S) cell line was generated in house, according to the protocol reported above. Cell culture flasks and 384-well microplates were acquired from VWR (Radnor, Pa., USA).
EGFR degradation was determined based on quantification of FRET signal using EGFR total kit. The FRET signal detected correlates with total EGFR protein level in cells. Briefly, test compounds were added to the 384-well plate from a top concentration of 1 μM with 11 points, half log titration in quadruplicates. Then, BaF3 EGFR mutant cell lines (EGFR T790M/L858R/C797S) were added into 384-well plates at a cell density of 10000 cells per well. The plates were kept at 37° C. with 5% CO2 for 4 hours. After 4-hour incubation, 4× lysis buffer was added to the cells, and then microplate was agitated on plate shaker at 500 rpm for 30 minutes at room temperature. Next, total EGFR antibody solution was added to the cells and the cells were incubated for another 4 hours at room temperature. Finally, FRET signal was acquired on EnVision™ Multilabel Reader (PerkinElmer, Santa Clara, Calif., USA). The cells treated in the absence of the test compound were the negative control and lysis buffer with antibody solution only were the positive control.
On to `CO[C@H]1CCN(c2nccc(Nc3cc4c(cn3)c(C(=O)NC3CCN(CCCCCCNc5cccc6c5C(=O)N(C5CCC(=O)NC5=O)C6=O)CC3)cn4C(C)C)n2)C[C@H]1F` (mixture of isomers) [Example 7, N-[1-[6-[[2-[(3RS)-2,6-Dioxo-3-piperidyl]-1,3-dioxo-isoindolin-4-yl]amino]hexyl]-4-piperidyl]-6-[[2-[(3R,4S)-3-fluoro-4-methoxy-1-piperidyl]pyrimidin-4-yl]amino]-1-isopropyl-pyrrolo[3,2-c]pyridine-3-carboxamide], for which the DC50 was determined as 70 nM.
The figure for `CO[C@H]1CCN(c2nccc(Nc3cc4c(cn3)c(C(=O)NC3CCN(CCCCC5CCN(c6ccc7c(c6)C(=O)N(C6CCC(=O)NC6=O)C7=O)CC5)CC3)cn4C(C)C)n2)C[C@H]1F` (mixture of isomers) [Example 19, N-[1-[4-[1-[2-[(3RS)-2,6-Dioxo-3-piperidyl]-1,3-dioxo-isoindolin-5-yl]-4-piperidyl]butyl]-4-piperidyl]-6-[[2-[(3R,4S)(3S,4R)-3-fluoro-4-methoxy-1-piperidyl]pyrimidin-4-yl]amino]-1-isopropyl-pyrrolo[3,2-c]pyridine-3-carboxamide] is 73 nM.
The figure for `CO[C@H]1CCN(c2nccc(Nc3cc4c(cn3)c(C(=O)NC3CCN(CCCCCCNc5cccc6c5C(=O)N(C5CCC(=O)NC5=O)C6=O)CC3)cn4C3CCCC3)n2)C[C@H]1F` (mixture of isomers) [Example 10, 1-Cyclopentyl-N-[1-[6-[[2-[(3RS)-2,6-dioxo-3-piperidyl]-1,3-dioxo-isoindolin-4-yl]amino]hexyl]-4-piperidyl]-6-[[2-[(3R,4S)-3-fluoro-4-methoxy-1-piperidyl]pyrimidin-4-yl]amino]pyrrolo[3,2-c]pyridine-3-carboxamide] is 85 nM; for `CO[C@H]1CCN(c2nccc(Nc3cc4c(cn3)c(C(=O)NC3CCN(CCC5CCN(c6ccc7c(c6)C(=O)N(C6CCC(=O)NC6=O)C7=O)CC5)CC3)cn4C3CCCC3)n2)C[C@H]1F` (mixture of isomers) [Example 15, 1-Cyclopentyl-N-[1-[2-[1-[2-[(3RS)-2,6-dioxo-3-piperidyl]-1,3-dioxo-isoindolin-5-yl]-4-piperidyl]ethyl]-4-piperidyl]-6-[[2-[(3R,4S)-3-fluoro-4-methoxy-1-piperidyl]pyrimidin-4-yl]amino]pyrrolo[3,2-c]pyridine-3-carboxamide] it is 49 nM; for `COC1CCN(c2nccc(Nc3cc4c(cn3)c(C(=O)NC3CCN(CCCCCCNc5cccc6c5C(=O)N(C5CCC(=O)NC5=O)C6=O)CC3)cn4C(C)C)n2)CC1` (racemic) [Example 2, N-[1-[6-[[2-[(3RS)-2,6-Dioxo-3-piperidyl]-1,3-dioxo-isoindolin-4-yl]amino]hexyl]-4-piperidyl]-1-isopropyl-6-[[2-(4-methoxy-1-piperidyl)pyrimidin-4-yl]amino]pyrrolo[3,2-c]pyridine-3-carboxamide] it is 132 nM.
Turning to `CO[C@H]1CCN(c2nccc(Nc3cc4c(cn3)c(C(=O)NC3CCN(CCCOC5CN(c6cccc7c6C(=O)N(C6CCC(=O)NC6=O)C7=O)C5)CC3)cn4C(C)C)n2)C[C@H]1F` (mixture of isomers) [Example 22, N-[1-[3-[1-[2-[(3RS)-2,6-Dioxo-3-piperidyl]-1,3-dioxo-isoindolin-4-yl]azetidin-3-yl]oxypropyl]-4-piperidyl]-6-[[2-[(3R,4S)-3-fluoro-4-methoxy-l-piperidyl]pyrimidin-4-yl]amino]-1-isopropyl-pyrrolo[3,2-c]pyridine-3-carboxamide], the DC50 was determined as 26 nM.
Turning to `CO[C@H]1CCN(c2nccc(Nc3cc4c(cn3)c(C(=O)NC3CCN(CCCCCNc5cccc6c5C(=O)N(C5CCC(=O)NC5=O)C6=O)CC3)cn4C3CCCC3)n2)C[C@H]1F` (mixture of isomers) [Example 11, 1-Cyclopentyl-N-[1-[5-[[2-[(3RS)-2,6-dioxo-3-piperidyl]-1,3-dioxo-isoindolin-4-yl]amino]pentyl]-4-piperidyl]-6-[[2-[(3R,4S)-3-fluoro-4-methoxy-1-piperidyl]pyrimidin-4-yl]amino]pyrrolo[3,2-c]pyridine-3-carboxamide], the DC50 was 43 nM.
Turning to `CO[C@H]1CCN(c2nccc(Nc3cc4c(cn3)c(C(=O)NC3CCN(CCCCNc5cccc6c5C(=O)N(C5CCC(=O)NC5=O)C6=O)CC3)cn4C(C)C)n2)C[C@H]1F` (mixture of isomers) [Example 14, N-[1-[4-[[2-[(3RS)-2,6-Dioxo-3-piperidyl]-1,3-dioxo-isoindolin-4-yl]amino]butyl]-4-piperidyl]-6-[[2-[(3R,4S)-3-fluoro-4-methoxy-1-piperidyl]pyrimidin-4-yl]amino]-1-isopropyl-pyrrolo[3,2-c]pyridine-3-carboxamide], the DC50 was found to be 41 nM.
The same measure for `CO[C@@H]1CCN(c2nccc(Nc3cc4c(cn3)c(C(=O)NC3CCN(CCCCCCNc5cccc6c5C(=O)N(C5CCC(=O)NC5=O)C6=O)CC3)cn4C(C)C)n2)C[C@@H]1F` (mixture of isomers) [Example 8, N-[1-[6-[[2-[(3RS)-2,6-Dioxo-3-piperidyl]-1,3-dioxo-isoindolin-4-yl]amino]hexyl]-4-piperidyl]-6-[[2-[(3S,4R)-3-fluoro-4-methoxy-1-piperidyl]pyrimidin-4-yl]amino]-1-isopropyl-pyrrolo[3,2-c]pyridine-3-carboxamide]: 46 nM; for `COC1CCN(c2nccc(Nc3cc4c(cn3)c(C(=O)NC3CCN(CCCCCCNc5cccc6c5C(=O)N(C5CCC(=O)NC5=O)C6=O)CC3)cn4C3CCCC3)n2)CC1` (racemic) [Example 4, 1-Cyclopentyl-N-[1-[6-[[2-[(3RS)-2,6-dioxo-3-piperidyl]-1,3-dioxo-isoindolin-4-yl]amino]hexyl]-4-piperidyl]-6-[[2-(4-methoxy-1-piperidyl)pyrimidin-4-yl]amino]pyrrolo[3,2-c]pyridine-3-carboxamide]: 38 nM; for `CO[C@H]1CCN(c2nccc(Nc3cc4c(cn3)c(C(=O)NC3CCN(CCCOC5CCN(c6cccc7c6C(=O)N(C6CCC(=O)NC6=O)C7=O)CC5)CC3)cn4C3CCCC3)n2)C[C@H]1F` (single isomer, unassigned) [Example 18]: 45 nM.
On to `CO[C@H]1CCN(c2nccc(Nc3cc4c(cn3)c(C(=O)NC3CCN(CCCC5CN(c6cccc7c6C(=O)N(C6CCC(=O)NC6=O)C7=O)C5)CC3)cn4C(C)C)n2)C[C@H]1F` (mixture of isomers) [Example 24, N-[1-[3-[1-[2-[(3RS)-2,6-Dioxo-3-piperidyl]-1,3-dioxo-isoindolin-4-yl]azetidin-3-yl]propyl]-4-piperidyl]-6-[[2-[(3R,4S)-3-fluoro-4-methoxy-1-piperidyl]pyrimidin-4-yl]amino]-1-isopropyl-pyrrolo[3,2-c]pyridine-3-carboxamide], for which the DC50 amounted to 5 nM.
The figure for `CO[C@@H]1CCN(c2nccc(Nc3cc4c(cn3)c(C(=O)NC3CCN(CCCCCCNc5cccc6c5C(=O)N(C5CCC(=O)NC5=O)C6=O)CC3)nn4C(C)C)n2)C[C@@H]1F` (mixture of isomers) [Example 21, N-[1-[6-[[2-[(3RS)-2,6-Dioxo-3-piperidyl]-1,3-dioxo-isoindolin-4-yl]amino]hexyl]-4-piperidyl]-6-[[2-[(3S,4R)-3-fluoro-4-methoxy-1-piperidyl]pyrimidin-4-yl]amino]-1-isopropyl-pyrazolo[4,3-c]pyridine-3-carboxamide] is 2 nM; for `CO[C@H]1CCN(c2nccc(Nc3cc4c(cn3)c(C(=O)NC3CCN(CCCOC5CCN(c6cccc7c6C(=O)N(C6CCC(=O)NC6=O)C7=O)CC5)CC3)cn4C(C)C)n2)C[C@H]1F` (mixture of isomers) [Example 17, N-[1-[3-[[1-[2-[(3RS)-2,6-Dioxo-3-piperidyl]-1,3-dioxo-isoindolin-4-yl]-4-piperidyl]oxy]propyl]-4-piperidyl]-6-[[2-[(3R,4S)-3-fluoro-4-methoxy-1-piperidyl]pyrimidin-4-yl]amino]-1-isopropyl-pyrrolo[3,2-c]pyridine-3-carboxamide] it is 74 nM.
